Experimental data: US9346818B2 (priority 2012, dated 2016)
Entries after “also recorded” stand apart in the source; their conditions may differ. Where two headings read alike, the source gives them in different places.

Experiments:
[1] = molecular target: acetylcholinesterase (Homo sapiens (Human), UniProt P22303); assay: biochemical; assay type: biochemical; conditions: for potency on acetylcholinesterase compared with positive control drug donepezil hydrochloride: enzymology level; for IC50: read-out: IC50 (nM), inhibition activity on acetylcholinesterase
[2] = tested on: learning and memory disorder of mice induced by scopolamine; assay: Morris water maze test, senile dementia mice model induced by scopolamine; assay type: in vivo; conditions: for latent period day 1 / latent period day 2 / latent period day 3 / latent period day 4 / latent period day 5 / times of crossing platform: Table 4, 5 mg/kg intragastric, scopolamine 1 mg/kg
[3] = tested on: malonaldehyde (MDA); assay: Biochemical indicators of brain tissues (MDA assay) in scopolamine mice; assay type: in vivo; conditions: 5 mg/kg; for MDA(nmol/mgprot): brain tissue homogenate
Experimental: After the behavior test was complete, the mice were sacrificed, brain tissues were collected (operated on an ice plate) and prepared into 10% of tissue homogenate with pre-cooled physiological saline, centrifuged (3000 rpm, 10 min), and the supernatant was subjected to malonaldehyde (MDA) assay following the kits.

[4] = rat, in vivo, po, 5 mg/kg
Experimental: 0.3 ml of whole blood was collected at corresponding time point, anticoagulating with heparin, centrifuged at 4000 rpm for 10 min, the plasma was separated, 50 μL the plasma sample of rats was collected, 100 μL acetonitrile (containing 0.1% formic acid) was added, mixed under vortex for 1 min, centrifuged (12000 rpm) for 10 min, the supernatant was collected, analyzed with liquid chromatography-mass spectrometer, the area of peaks were recorded and used for the calculation of blood drug concentration, and the drug-time curve was plotted.

[5] = in vivo; conditions: mouse, in vivo
Experimental: (§1) Firstly, preliminary tests were performed, in order to determine the concentration of each compound, with just 0% mortality or just 100% mortality, before starting the formal tests. The animals were divided into groups by weight, various dosages of drugs were administered between 0%-100%. Dosage volume: 10 ml/kg. Dosage manner: intravenous injection or intragastric administration.
(§2) The animals were divided into 6 groups, with 5 animals per group.
(§3) The animals were divided into 6 groups, with 5 animals per group. […] Each animal was fasted 12 h before administration.
(§4) The animals were divided into 5 groups, with 5 animals per group.
(§5) The animals were divided into 5 groups, with 5 animals per group. […] Each animal was fasted 12 h before administration.
(§6) The toxic reaction and death of the animals after administration were observed, and mortality was counted. The results were analyzed with LD50 data processing software.

[6] = tested on: white mice; assay: in vivo; conditions: for Mortality (%) / Number of death: 5 animals
Experimental: as §1, §2, §3, §4, §5, §6

[7] = Intragastric administration 122.88 mg/kg
[8] = Intragastric administration 153.60 mg/kg
[9] = Intragastric administration 240.00 mg/kg
[10] = Intragastric administration 300.00 mg/kg
[11] = Intravenous injection 16.40 mg/kg
[12] = Intravenous injection 18.23 mg/kg
[13] = Intravenous injection 20.25 mg/kg
[14] = Intravenous injection 23.04 mg/kg
[15] = Intravenous injection 25.60 mg/kg

acetylcholinesterase, sequence (P22303 32-614, species assumed): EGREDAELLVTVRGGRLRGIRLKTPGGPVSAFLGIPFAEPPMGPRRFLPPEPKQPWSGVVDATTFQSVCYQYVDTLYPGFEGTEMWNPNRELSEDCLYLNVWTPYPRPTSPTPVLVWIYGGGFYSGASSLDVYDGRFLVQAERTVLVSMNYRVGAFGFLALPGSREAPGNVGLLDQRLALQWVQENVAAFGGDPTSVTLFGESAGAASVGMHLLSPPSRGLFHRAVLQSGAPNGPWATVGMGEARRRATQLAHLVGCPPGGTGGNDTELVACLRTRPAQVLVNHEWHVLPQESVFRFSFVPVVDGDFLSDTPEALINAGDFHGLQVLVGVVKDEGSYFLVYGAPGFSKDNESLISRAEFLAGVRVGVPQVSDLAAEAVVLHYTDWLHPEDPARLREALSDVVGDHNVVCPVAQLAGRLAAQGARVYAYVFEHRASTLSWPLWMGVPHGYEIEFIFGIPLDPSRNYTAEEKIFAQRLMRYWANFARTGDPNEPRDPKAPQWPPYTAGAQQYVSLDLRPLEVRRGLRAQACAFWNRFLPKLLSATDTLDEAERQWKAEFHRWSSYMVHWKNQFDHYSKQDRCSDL

Compound: O=C1c2cc3c(cc2C2(CC2)N1CCC1CCN(Cc2ccccn2)CC1)OCO3 [Compound I-29, 6-[2-[1-(2-pyridylmethyl)-4-piperidyl]ethyl]spiro[[1,3]dioxolo[4,5-f]isoindole-7,1′-cyclopropane]-5-one]
- inhibition activity on acetylcholinesterase in vitro relative to donepezil hydrochloride ([1]; in vitro): about 10%
- potency on acetylcholinesterase compared with positive control drug donepezil hydrochloride ([1]; in vitro): even lower
- IC50 [1]: 903 nM
- effect on learning and memory disorder of mice induced by scopolamine ([2]; Morris water maze, in comparison with model group / donepezil hydrochloride group): stronger effects of improving learning and memory
- latent period day 1 [2]: 59.3 ± 2.7 s
- latent period day 2 [2]: 54.6 ± 12.5 s
- latent period day 3 [2]: 48.0 ± 15.8 s
- latent period day 4 [2]: 46.0 ± 16.3 s
- latent period day 5 [2]: 40.4 ± 21.6 s
- times of crossing platform [2]: 1.5 ± 1.4
- content of MDA in brains / antioxidation effect [3]: significant antioxidation effect
- MDA(nmol/mgprot) [3]: 6.66 ± 1.75 nmol/mgprot

Compound: CC1(C)c2cc3c(cc2C(=O)N1CCC1CCN(Cc2ccccc2F)CC1)OCO3 [Compound I-14, 6-[2-[1-[(2-fluorophenyl)methyl]-4-piperidyl]ethyl]-7,7-dimethyl-[1,3]dioxolo[4,5-f]isoindol-5-one]
- potency on acetylcholinesterase compared with positive control drug donepezil hydrochloride ([1]; in vitro): relative low activity
- IC50 [1]: > 2000 nM
- latent period day 1 [2]: 57.1 ± 7.6 s
- latent period day 2 [2]: 60 ± 0 s
- latent period day 3 [2]: 60 ± 0 s
- latent period day 4 [2]: 54.2 ± 8.9 s
- latent period day 5 [2]: 49.9 ± 14.7 s
- times of crossing platform [2]: 1.3 ± 1.8
- MDA(nmol/mgprot) [3]: 7.36 ± 1.3 nmol/mgprot

Compound: O=C1c2cc3c(cc2C2(CC2)N1CCC1CCN(Cc2ccccn2)CC1)OCO3 [Compound I-35, 6-[2-[1-(2-pyridylmethyl)-4-piperidyl]ethyl]spiro[[1,3]dioxolo[4,5-f]isoindole-7,1′-cyclopropane]-5-one phosphate]
- IC50 ([1]; modified Ellman method): 601 nM
- MRT(0-t) [4]: 2.343 ± 0.206
- MRT(0-∞) [4]: 2.483 ± 0.265
- t1/2z [4]: 1.965 ± 0.296

Compound: Cl.O=C1c2cc3c(cc2C2(CC2)N1CCC1CCN(Cc2ccccc2)CC1)OCO3 [Compound I-34, 6-[2-(1-benzyl-4-piperidyl)ethyl]spiro[[1,3]dioxolo[4,5-f]isoindole-7,1′-cyclopropane]-5-one hydrochloride]
- potency on acetylcholinesterase compared with positive control drug donepezil hydrochloride ([1]; in vitro, hydrochloride): slightly lower potency than the positive control drug; also recorded: comparable inhibition activity on acetylcholinesterase with donepezil hydrochloride
- IC50 [1]: 197 nM
- LD50 ([5]; iv): 20.1 mg/kg
- LD50 ([5]; po): 171 mg/kg
- Mortality (%) [6, 7]: 0%
- Number of death [6, 7]: 0
- Mortality (%) [6, 8]: 40%
- Number of death [6, 8]: 2
- Mortality (%) [6, 9]: 80%
- Number of death [6, 9]: 4
- Mortality (%) [6, 10]: 100%
- Number of death [6, 10]: 5
- Mortality (%) [6, 11]: 0%
- Number of death [6, 11]: 0
- Mortality (%) [6, 12]: 20%
- Number of death [6, 12]: 1
- Mortality (%) [6, 13]: 60%
- Number of death [6, 13]: 3
- Mortality (%) [6, 14]: 80%
- Number of death [6, 14]: 4
- Mortality (%) [6, 15]: 100%
- Number of death [6, 15]: 5
- median lethal dose by oral and intravenous administration, times of those of donepezil hydrochloride ([6]; oral and intravenous): 4-7 times
- toxicity compared with donepezil hydrochloride ([6]; preliminary acute toxicity tests): lower toxicity than donepezil hydrochloride

Compound: Cc1ccccc1CN1CCC(CCN2C(=O)c3cc4c(cc3C23CC3)OCO4)CC1 [Compound I-23, 6-[2-[1-(o-tolylmethyl)-4-piperidyl]ethyl]spiro[[1,3]dioxolo[4,5-f]isoindole-7,1′-cyclopropane]-5-one]
- potency on acetylcholinesterase compared with positive control drug donepezil hydrochloride ([1]; in vitro): even lower
- IC50 ([1]; modified Ellman method): 959 nM
- latent period day 1 [2]: 57.8 ± 5.4 s
- latent period day 2 [2]: 57.7 ± 7.1 s
- latent period day 3 [2]: 55.5 ± 8.8 s
- latent period day 4 [2]: 43.9 ± 14.1 s
- latent period day 5 [2]: 51.8 ± 10.9 s
- times of crossing platform [2]: 1.5 ± 1.5
- MDA(nmol/mgprot) [3]: 6.53 ± 2.3 nmol/mgprot

Compound: CC1(C)c2cc3c(cc2C(=O)N1CCC1CCN(Cc2cccc(F)c2)CC1)OCO3 [Compound I-15, 6-[2-[1-[(3-fluorophenyl)methyl]-4-piperidyl]ethyl]-7,7-dimethyl-[1,3]dioxolo[4,5-f]isoindol-5-one]
- potency on acetylcholinesterase compared with positive control drug donepezil hydrochloride ([1]; in vitro): relative low activity
- IC50 ([1]; modified Ellman method): > 2000 nM
- latent period day 1 [2]: 60 ± 0 s
- latent period day 2 [2]: 58.9 ± 4.4 s
- latent period day 3 [2]: 56.5 ± 8.3 s
- latent period day 4 [2]: 57.8 ± 5.3 s
- latent period day 5 [2]: 51.1 ± 10.9 s
- times of crossing platform [2]: 1.9 ± 1.5
- MDA(nmol/mgprot) [3]: 7.41 ± 2.1 nmol/mgprot
